Values joined by “and” are separate entries in the source; they are usually repeats but may differ in a detail not shown here. Equal values may be shown once.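 Test compounds were applied to cells in 96-well plates for 48 hours at 5 doses. At the GI50, growth is halved. TGI: total growth inhibition.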
Legend:
Test in all cases: DTP human tumour cell line panel, 48 h
NCI-H522 lung = test system: NCI-H522 lung
HT29 colon = test system: HT29 colon
SF-539 CNS = test system: SF-539 CNS
DU-145 prostate = test system: DU-145 prostate
UO-31 renal = test system: UO-31 renal
SNB-19 CNS = test system: SNB-19 CNS
CCRF-CEM leukemia = test system: CCRF-CEM leukemia
M14 melanoma = test system: M14 melanoma
NCI-H23 lung = test system: NCI-H23 lung
SF-268 CNS = test system: SF-268 CNS

| Compound | GI50 (NCI-H522 lung) | TGI (NCI-H522 lung) | GI50 (HT29 colon) | TGI (HT29 colon) | GI50 (SF-539 CNS) | TGI (SF-539 CNS) | GI50 (DU-145 prostate) | TGI (DU-145 prostate) | GI50 (UO-31 renal) | TGI (UO-31 renal) | GI50 (SNB-19 CNS) | TGI (SNB-19 CNS) | GI50 (CCRF-CEM leukemia) | TGI (CCRF-CEM leukemia) | GI50 (M14 melanoma) | TGI (M14 melanoma) | GI50 (NCI-H23 lung) | TGI (NCI-H23 lung) | GI50 (SF-268 CNS) | TGI (SF-268 CNS) |
| --- | --- | --- | --- | --- | --- | --- | --- | --- | --- | --- | --- | --- | --- | --- | --- | --- | --- | --- | --- | --- |
| CN=C(N)c1ccc(N=C(N)c2ccc(-c3ccc(C(N)=Nc4ccc(C(N)=NC)cc4)cc3)cc2)cc1 | 18.4 µM | > 100 µM | 62.8 µM | > 100 µM | > 100 µM | > 100 µM | 41.2 µM | > 100 µM | > 100 µM | > 100 µM | > 100 µM | > 100 µM | > 100 µM | > 100 µM | 82.2 µM | > 100 µM | > 100 µM | > 100 µM | > 100 µM | > 100 µM |
| CCOCC1(COCC)CCC(c2[nH]ncc2CN(C)CCNC)CC1 | > 100 µM | > 100 µM | 33.3 µM | > 100 µM | > 100 µM | > 100 µM | > 100 µM | > 100 µM | > 100 µM | > 100 µM | > 100 µM | > 100 µM | > 100 µM | > 100 µM | > 100 µM | > 100 µM | > 100 µM | > 100 µM | > 100 µM | > 100 µM |
| COc1cc2cc(Oc3ccc(NC(=O)Nc4cc(C(F)(F)F)cc(C(F)(F)F)c4)cc3)c(C)nc2cc1OCCN1CCOCC1 | 1.63 µM | 7.29 µM | 1.75 µM | 7.14 µM | 1.54 µM | 5.25 µM | 1.93 µM | 7.05 µM | 1.01 µM | 4.06 µM | 1.88 µM | 7.42 µM | 1.41 µM | 6.57 µM | 1.51 µM | 5.88 µM | 1.66 µM | 6.69 µM | 1.98 µM | 8.06 µM |
| CC(C)(C)c1cc(C(=O)Nc2ccccc2C(=O)NCCN)cc(C(C)(C)C)c1 | 1.85 µM | 3.82 µM | 1.84 µM | 3.59 µM | 1.89 µM | 3.5 µM | 1.84 µM | 3.4 µM | 1.67 µM | 3.17 µM | 1.93 µM | 3.75 µM | 2.5 µM | 6.36 µM | 1.91 µM | 3.64 µM | 1.94 µM | 3.89 µM | 1.86 µM | 3.62 µM |
| COc1cc2oc(-c3cccc(C(=O)Nc4ccc(Cl)cc4)c3)cc(=O)c2c(OC)c1OC | 1.73 µM | > 100 µM | 1.97 µM | 6.65 µM | 2.56 µM | > 100 µM | 2.85 µM | > 100 µM | 2.85 µM | > 100 µM | 6.35 µM | > 100 µM | 2.28 µM | > 100 µM | 1.38 µM | 4.73 µM | 3.6 µM | > 100 µM | 4.66 µM | > 100 µM |
| O=C1NC(=NCCc2ccc(F)cc2)S/C1=C\c1ccc2ncccc2c1 | > 25 µM | > 25 µM | > 25 µM | > 25 µM | > 25 µM | > 25 µM | > 25 µM | > 25 µM | > 25 µM | > 25 µM | > 25 µM | > 25 µM | > 25 µM | > 25 µM | > 25 µM | > 25 µM | > 25 µM | > 25 µM | > 25 µM | > 25 µM |
| O=C1CC2OCC=C3CN4CCC56c7ccccc7N1C5C2C3CC46O (centres undefined) |  | > 100 µM |  | > 100 µM |  | > 100 µM |  | > 100 µM |  | > 100 µM |  | > 100 µM |  | > 100 µM |  | > 100 µM |  | > 100 µM |  | > 100 µM |
| O=C(CS(=O)(=O)c1nc2ccccc2nc1-c1ccccc1)Nc1ccc(F)cc1 | 48.2 µM | > 100 µM | 33.6 µM | > 100 µM | 18.7 µM | 60.2 µM | 36.1 µM | > 100 µM | 59.1 µM | > 100 µM | 98.9 µM | > 100 µM | 3.15 µM | 18.8 µM | > 100 µM | > 100 µM | > 100 µM | > 100 µM | 91.8 µM | > 100 µM |
| CCCn1c2c(c3ccccc3c1=O)C(=O)c1ccccc1-2 |  | 39.6 µM |  | > 100 µM |  | > 100 µM |  | > 100 µM |  | > 100 µM |  | > 100 µM |  | > 100 µM |  | > 100 µM |  | > 100 µM |  | > 100 µM |
| O=C(Nc1ccc(Oc2ccc(F)cc2)cc1)[C@@H]1C[C@@H](Cc2ccc(F)cc2)CN1C(=O)Cn1ccnn1 | 5.01 µM | 19.3 µM | 4.2 µM | 15 µM | 10.6 µM | 26.6 µM | 13.6 µM | > 85.7 µM | 3.5 µM | 25.2 µM | 9.45 µM | > 100 µM | 5.24 µM | > 100 µM | 8.54 µM | 25.7 µM | 12.1 µM | 35.5 µM | 8.55 µM | 33.8 µM |
| O=C1CC(c2c[nH]c3ccc(F)cc23)C(=O)N1 (centres undefined) | > 100 µM | > 100 µM | > 100 µM | > 100 µM | > 100 µM | > 100 µM | > 100 µM | > 100 µM | > 100 µM | > 100 µM | > 100 µM | > 100 µM | > 100 µM | > 100 µM | > 100 µM | > 100 µM | > 100 µM | > 100 µM | > 100 µM | > 100 µM |
| CC(=O)OCC1OC(n2c(=S)n(-c3ccc([N+](=O)[O-])cc3)c(=O)c3ccccc32)C(OC(C)=O)C(OC(C)=O)C1OC(C)=O (centres undefined) |  | 45.3 µM and 33.7 µM |  | > 100 µM |  | 36 µM and 29.7 µM |  | > 100 µM | 12 µM and 23.2 µM | > 57.5 µM and 60.1 µM | 24.4 µM | 47.5 µM and 69.4 µM | 5.11 µM and 15.4 µM | 96.9 µM and > 100 µM | 16 µM and 30.7 µM | 48.8 µM and > 100 µM |  | > 83.2 µM and 46.4 µM |  | 62.1 µM and 44.7 µM |
| CC(=O)Nc1ccc(C(=O)CCl)cc1 | 2.06 µM | 4.17 µM | 2.45 µM | 5.04 µM | 3.63 µM | 14.7 µM | 9.19 µM | 21.2 µM | 1.71 µM | 3.26 µM | 17.2 µM | 45.1 µM | 2.41 µM | 7.51 µM | 2.56 µM | 7.38 µM | 11.4 µM | 31.6 µM | 13.9 µM | 29.5 µM |
